This note sets out measurements from patent US20080221074A1, “Drug Screen and Treatment Method” (priority 2006, published 2008).

For data set [1], the system named is osteoblasts and osteocytes. Briefly: osteoblast and osteocyte apoptosis in vertebral bone of ovariectomized mice (TUNEL). The data set is classed as in vivo, Swiss Webster mice. The source says: The degree of apoptosis of osteoblasts and osteocytes in murine vertebral bone as a function of estrogen deficiency was examined. Swiss Webster mice (four months old) were ovariectomized. Twenty-eight days later, the animals were sacrificed, vertebrae were isolated, fixed and embedded, and then undecalcified in methacrylate.

The test system of the next data set is EAE. Briefly: PLP-induced EAE, treatment from clinical onset. The data set is classed as in vivo, female SJL mice. The conditions noted are these: 0.1 mg q.d. po from clinical onset. How it is done:
The protocol for conducting the EAE animal model was described in (D. Auci et. al., Ann. NY. Acad. Sci. USA, 1051:730-42, 2005). Female SJL mice (6-8 week old, average body weight of 25 g) obtained from Charles-River were kept under standard laboratory conditions (non specific pathogen germ free) with ad libitum food and water and were allowed to adapt one week to their environment before commencing the study. […] EAA was induced with 200 μL of a 1:1 emulsion of 75 μg proteolipid protein (PLP) and 6 mg/mL Mycobacterium tuberculosis H37RA in complete Freund's adjuvant (CFA). The 200 μL injection was divided among four sites that drained into the auxiliary and inguinal lymphnodes. Pertussis toxin was used as a co-adjuvant and was administered i.p. at 200 ng/mouse on day zero and day two post immunization. Groups were treated with 0.1 mg of compound in 100 μL vehicle, or with vehicle alone, q.d. po (oral gavage) starting at clinical onset of disease and continuing through to day 30 post immunization. […] Clinical grading was carried out by an observer unaware of the treatment: 0=no illness, 1=flaccid tail, 2=moderate paraparesis, 3=severe paraparesis, 4=moribund state, 5=death.

Data set [2] concerns human MG-63 osteosarcoma cell line. The experiment in a line: reversal of dexamethasone effects in MG-63 osteoblasts. Format: cell-based. The conditions noted are these: 30 nM dexamethasone; compound concentration stated with each value (17α-ethynyl triol: 1 nM).
A short description of data set [3]: degree of sulfation and glucuronidation (other protocols). The data set is classed as in vitro ADME. The conditions noted are these: compared to diols. The source says:
Despite that, the compound androst-5-ene-3β,7β,16α,17β-tetrol was active as described above when administered orally to mice in a diabetes treatment model. […] This activity may have arisen at least partly from the low metabolism of tetrol compounds in vivo.

Data set [4] deals with LPS-induced acute lung inflammation. The experiment in a line: LPS-induced lung injury. The conditions noted are these: 40 mg/Kg orally; 48 h after LPS. Format: in vivo, C57/BL6 mice.
The test system of data set [5] is insulin sensitivity in db/db diabetic mice. Briefly: hyperinsulinemic-euglycemic clamp. The data set is classed as in vivo. How it is done: Glucose lowering in 8 week old db/db diabetic mice. The hyperinsulinemic-euglycemic clamp protocol was conducted to measure insulin sensitivity in vivo. In this procedure, insulin was administered to raise the insulin concentration while glucose was infused to maintain euglycemia or a fixed, normal blood glucose level (about 180 mg/dL). […] The objective of this protocol was to investigate characterize the capacity of 17α-ethynylandrost-5-ene-3β,7β,17β-triol and androst-5-ene-3β,7β,16α,17β-tetrol to ameliorate systemic insulin resistance and improve whole body glucose disposal in the hyperinsulinemic-euglycemic clamp model. The degree of skeletal muscle and hepatic insulin sensitivity and tissue specific glucose uptake were also assessed. The animals were dosed daily by oral gavage for 14 days. On Day 10 of treatment catheters were implanted in the carotid artery and jugular vein. On the day of the clamp (day 14) the compound was administered at 7:30 am.
Body weight and glucose concentration were assessed on day 0, 7 and day 14 of treatment. On day 14 a euglycemic hyperinsulinemic clamp was performed. Food was removed at 7:30 am at 10:30 a primed continuous infusion of [3-^3H]-glucose (0.05 μCi/min). A baseline blood sample was taken at 12:50 (−10 min) and at 1:00 (0 min) a euglycemic hyperinsulinemic clamp was initiated by administering 10 mU /kg/min of insulin. Glucose was infused at a variable rate to clamp the glucose concentration at ˜180 mg/dl. A bolus of [^14C]-2deoxyglucose was given at the end of the study to assess tissue specific glucose uptake. Plasma ^14C 2-deoxyglucose was assessed at 122, 125, 130, 135, 145 min. […]
Analysis was conducted as follows. Plasma samples were deproteinized with Ba(OH)2 (0.3 N) and ZnSO4 (0.3 N), dried and radioactivity was assessed on scintillation counter (Packard TRICARB 2900 TR, Meriden, Conn.). […] One supernatant was directly counted to determine radioactivity from both [14C] […] A second aliquot was treated with Ba(OH)2 and ZnSO4 to remove ^14C DGP and any tracer incorporated into glycogen and then counted to determine radioactivity from free [^14C]DG(2). [^14C]DGP was calculated as the difference between the two aliquots. […] Rg, an index of tissue specific glucose uptake was calculated as previously described (E.W. Kraegen et al., Am. J. Physiol., 248:E353-E362, 1985). Whole body glucose turnover was calculated as the ratio of the ^3H glucose infusion rate (dpm/kg/min) and arterial plasma glucose specific activity (dpm/mg). Endogenous glucose production was calculated as the difference between the whole body glucose turnover and the exogenous glucose infusion rate (R. N. Bergman et al., Endocr. Rev., 6:45-86, 1985).

A further data set addresses estrogen receptor-α (Homo sapiens, UniProt P03372). The experiment in a line: interaction with sex hormone receptor. Format: binding.
The target of another data set is estrogen receptor-β (Homo sapiens, UniProt Q92731). Briefly: interaction with sex hormone receptor. The data set is classed as binding.
The subject of data set [6] is bone marrow-derived mast cells (BMMC). Briefly: mast cell stimulus-coupled degranulation (β-glucuronidase release). Format: cell-based, Balb/C mice. The conditions noted are these: no stimulus. How it is done:
In another protocol, a population of mast cells was cultivated from murine bone marrow as follows. Briefly, bone marrows from Balb/C mice were flushed from the femur using PBS and a 27 g needle. The cells were cultured in a mixture of ⅔ RPMI-1640 with 19% FBS and cells that secreted IL-3. The bone marrow cells were allowed to differentiate for 18-25 days in the IL-3-containing mixture before being used for experiments. Bone marrow cells cultured in this manner have a phenotype similar to mucosal mast cells and are referred to as bone marrow-derived mast cells (BMMC).
The homogeneity of the in vitro propagated mast cells was checked by conventional flow cytometry techniques and staining for cell-type specific markers. Between days 14 and 21 of propagation, mature mast cells were harvested and prepared for the test cultures. The objective was to assess of the effect of compounds such as dehydroepiandrosterone on mast cell stimulus-coupled degranulation. Prepared mast cells were dispensed into test culture wells at a density of 1×10^7 cells/mL. In control cultures, mast cells were induced to degranulate after cross linking of IgE receptors with IgE antigen-antibody complexes. […] There was no detectable degranulation of mast cells as measured by release of β-glucuronidase from cytosolic storage granules of the cells in the absence of the stimulus. […]

Molecules are shown by their SMILES.

estrogen receptor-α, sequence (P03372 whole entry): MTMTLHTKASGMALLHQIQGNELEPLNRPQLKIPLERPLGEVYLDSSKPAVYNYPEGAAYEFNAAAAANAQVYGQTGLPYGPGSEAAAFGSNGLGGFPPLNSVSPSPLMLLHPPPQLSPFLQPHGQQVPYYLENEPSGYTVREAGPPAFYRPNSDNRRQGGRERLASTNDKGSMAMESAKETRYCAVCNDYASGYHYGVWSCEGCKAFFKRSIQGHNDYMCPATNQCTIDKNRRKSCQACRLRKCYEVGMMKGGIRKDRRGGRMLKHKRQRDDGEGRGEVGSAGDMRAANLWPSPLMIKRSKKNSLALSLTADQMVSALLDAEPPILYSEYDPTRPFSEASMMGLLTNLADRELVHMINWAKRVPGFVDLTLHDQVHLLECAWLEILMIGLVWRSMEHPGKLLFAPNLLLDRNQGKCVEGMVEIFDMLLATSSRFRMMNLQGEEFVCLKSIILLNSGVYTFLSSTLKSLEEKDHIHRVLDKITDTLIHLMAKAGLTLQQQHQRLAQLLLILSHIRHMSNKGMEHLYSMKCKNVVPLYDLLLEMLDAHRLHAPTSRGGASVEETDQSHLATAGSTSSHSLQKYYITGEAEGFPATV
estrogen receptor-β, sequence (Q92731 whole entry, species assumed): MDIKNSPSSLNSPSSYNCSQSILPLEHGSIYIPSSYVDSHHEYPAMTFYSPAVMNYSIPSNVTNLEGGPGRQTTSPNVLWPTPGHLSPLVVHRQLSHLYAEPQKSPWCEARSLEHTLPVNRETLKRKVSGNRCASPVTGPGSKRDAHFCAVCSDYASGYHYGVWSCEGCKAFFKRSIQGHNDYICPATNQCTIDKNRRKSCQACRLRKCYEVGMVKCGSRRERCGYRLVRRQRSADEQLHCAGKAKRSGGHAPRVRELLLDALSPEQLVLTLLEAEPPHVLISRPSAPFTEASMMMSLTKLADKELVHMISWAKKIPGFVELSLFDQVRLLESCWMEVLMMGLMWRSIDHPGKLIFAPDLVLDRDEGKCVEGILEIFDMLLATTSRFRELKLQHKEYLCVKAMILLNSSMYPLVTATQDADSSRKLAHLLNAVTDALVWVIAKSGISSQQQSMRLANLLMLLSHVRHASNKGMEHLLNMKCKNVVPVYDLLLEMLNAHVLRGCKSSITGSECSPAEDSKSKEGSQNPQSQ

For `C[C@]12CC[C@H]3[C@@H](CCC4=C[C@H](O)CC[C@@H]43)[C@@H]1CC[C@@H]2O` [4-estrene-3α,17β-diol], the “osteoblast and osteocyte apoptosis” value in data set [1] was “reduce apoptosis”.

On to `C[C@]12CC[C@H]3[C@@H]([C@@H](O)C=C4C[C@H](O)CC[C@@]43C)[C@@H]1C[C@@H](O)[C@@H]2O` [androst-5-ene-3α,7β,16α,17β-tetrol], for which the “course of EAE compared to vehicle-treated mice” value with EAE is “very similar to that observed in the vehicle-treated mice”. Also, the “reversal of the decrease in osteoprotegerin synthesis” value in data set [2] is “normal osteoprotegerin levels at 10 nM”. Further, in data set [3], the “degree of sulfation and degree of glucuronidation” value is given as “low”.

With `C[C@]12CC[C@H]3[C@@H]([C@@H](O)C=C4C[C@@H](O)CC[C@@]43C)[C@@H]1C[C@@H](O)[C@@H]2O` [androst-5-ene-3β,7β,16α,17β-tetrol], in data set [4], the “IL-6 level in BAL vs vehicle” value is reported as “reduced levels”, the “MPO level vs vehicle” value is listed as “reduced levels” and the “TNFα level in BAL vs vehicle” value was “reduced levels”. Besides, in data set [5] (^14C-2-deoxyglucose, p<0.05), the “glucose uptake in the gastrocnemius muscle” value was “more effective”. Moreover, the “glucose infusion rate compared to vehicle control” value in data set [5] (oral gavage 14 days, insulin 10 mU/kg/min) was “increased the glucose infusion rate”. Also, the “course of EAE compared to vehicle-treated mice” value in the data set with EAE is listed as “significantly improved course of EAE”. The “reversal of the decrease in osteoprotegerin synthesis” value in data set [2] is recorded as “normal osteoprotegerin levels at 0.1 μM”. For the same molecule, on estrogen receptor-α, the “interaction with estrogen receptor-α” value is recorded as “do not interact”. Also, at estrogen receptor-β, the “interaction with estrogen receptor-β” value was “do not interact”. For the same molecule, in data set [3], the “degree of sulfation and degree of glucuronidation” value is reported as “low”.

Take `C[C@]12CC[C@H](O)CC1=CC[C@@H]1[C@@H]2CC[C@]2(C)C(=O)CC[C@@H]12` [dehydroepiandrosterone]: in [6], the “degranulation with compound alone” value is on record as “no measurable degranulation”.
